# Results: the supplement of paper PMC4314810
# ± gives the standard deviation of the averaged measurements.
# System: MCF7
# Experiment: HRG-induced Akt activation (dPAkt = log2 pAkt/Akt HRG-stimulated minus log2 pAkt/Akt basal) (log2 ratio difference); higher = stronger HRG-induced Akt(T308) phosphorylation
# Details: miRNA mimic concentration 10 nM; time after transfection 72 h; heregulin 10 ng/ml; stimulation time 1 h
# Procedure, shortened: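 MCF7 cells ([…], 96-well plates) carrying one of 879 miRNA mimics, transfected at 10 nM final with Lipofectamine RNAiMax in two biological replicates, were stimulated after 72 h with 10 ng/ml heregulin-beta1 for 1 h or left unstimulated. Phospho-Akt(T308) and total Akt in cells fixed with 4% PFA were read by In-Cell Western on an Odyssey and corrected for column-wise fixation decay to give log2(pAkt/Akt). Heregulin-induced Akt activation is the replicate mean of stimulated minus unstimulated ratios.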
row,Sequence,HRG-induced Akt activation (log2)
1,GUCCGCUCGGCGGUGGCCCA,1.34 ± 0.29
2,GUGAAAUGUUUAGGACCACUAG,1.97 ± 0.049
3,GUGAACGGGCGCCAUCCCGAGG,1.9231 ± 0.00011
4,GUGAAUUACCGAAGGGCCAUAA,1.03 ± 0.12
5,GUGACAUCACAUAUACGGCAGC,1.08 ± 0.31
6,GUGAGGACUCGGGAGGUGG,1.19 ± 0.87
7,GUGAGGGCAUGCAGGCCUGGAUGGGG,1.43 ± 0.21
8,GUGAGUCUCUAAGAAAAGAGGA,1.56 ± 0.38
9,GUGCAUUGCUGUUGCAUUGC,1.178 ± 0.00052
10,GUGCAUUGUAGUUGCAUUGCA,1.43 ± 0.074
11,GUGCCAGCUGCAGUGGGGGAG,0.883 ± 0.036
12,GUGGCUGCACUCACUUCCUUC,1.16 ± 0.076
13,GUGGGCGGGGGCAGGUGUGUG,1.13 ± 0.44
14,GUGGGGGAGAGGCUGUC,1.33 ± 0.25
15,GUGGGUACGGCCCAGUGGGGGG,1.24 ± 0.18
16,GUGUCUGCUUCCUGUGGGA,2.6 ± 0.069
17,GUGUCUGGGCGGACAGCUGC,1.87 ± 0.23
18,GUGUCUUUUGCUCUGCAGUCA,1.75 ± 0.15
19,GUGUGCGGAAAUGCUUCUGCUA,1.18 ± 0.2
20,GUGUGUGGAAAUGCUUCUGC,2.16 ± 0.41
21,GUGUUAAUUAAACCUCUAUUUAC,1.76 ± 0.034
22,GUGUUGAAACAAUCUCUACUG,1.53 ± 0.25
23,GUUCAAAUCCAGAUCUAUAAC,1.08 ± 0.18
24,GUUCUCCCAACGUAAGCCCAGC,1.62 ± 0.15

row,Sequence,HRG-induced Akt activation (log2)
1,GUUGGAGGAUGAAAGUACGGAGUGAU,0.878 ± 1.2
2,GUUGUGUCAGUUUAUCAAAC,1.54 ± 0.089
3,GUUUGCACGGGUGGGCCUUGUCU,1.88 ± 0.072
4,UAAAGAGCCCUGUGGAGACA,1.58 ± 0.083
5,UAAAGUAAAUAUGCACCAAAA,1.45 ± 0.18
6,UAAAGUGCUGACAGUGCAGAU,1.52 ± 0.054
7,UAAAGUGCUUAUAGUGCAGGUAG,1.57 ± 0.035
8,UAAAUCCCAUGGUGCCUUCUCCU,2.03 ± 0.12
9,UAAAUUUCACCUUUCUGAGAAGG,1.46 ± 0.22
10,UAACACUGUCUGGUAAAGAUGG,0.763 ± 0.24
11,UAACACUGUCUGGUAACGAUGU,1.04 ± 0.078
12,UAACAGUCUACAGCCAUGGUCG,1.37 ± 0.26
13,UAACAGUCUCCAGUCACGGCC,1.5 ± 0.11
14,UAACUGGUUGAACAACUGAACC,1.93 ± 0.54
15,UAAGGCACCCUUCUGAGUAGA,1.51 ± 0.1
16,UAAGGCACGCGGUGAAUGCC,1.15 ± 0.41
17,UAAGGUGCAUCUAGUGCAGAUAG,2.27 ± 0.37
18,UAAGGUGCAUCUAGUGCAGUUAG,2.1 ± 0.024
19,UAAGUGCUUCCAUGCUU,0.459 ± 0.22
20,UAAGUGCUUCCAUGUUUCAGUGG,0.9677 ± 0.0067
21,UAAGUGCUUCCAUGUUUGAGUGU,1.17 ± 0.15
22,UAAGUGCUUCCAUGUUUUAGUAG,1.08 ± 0.1
23,UAAGUGCUUCCAUGUUUUGGUGA,0.743 ± 0.38
24,UAAUACUGCCGGGUAAUGAUGGA,1.08 ± 0.34

row,Sequence,HRG-induced Akt activation (log2)
1,UAAUACUGCCUGGUAAUGAUGA,1.65 ± 0.49
2,UAAUACUGUCUGGUAAAACCGU,1.15 ± 0.17
3,UAAUCCUUGCUACCUGGGUGAGA,1.79 ± 0.047
4,UAAUCUCAGCUGGCAACUGUGA,1.38 ± 0.37
5,UAAUGCCCCUAAAAAUCCUUAU,0.932 ± 0.16
6,UAAUUGCUUCCAUGUUU,1.75 ± 0.088
7,UAAUUUUAUGUAUAAGCUAGU,1.79 ± 0.15
8,UACAGUACUGUGAUAACUGAA,1.57 ± 0.14
9,UACAGUAUAGAUGAUGUACU,1.39 ± 0.57
10,UACCACAGGGUAGAACCACGG,1.43 ± 0.074
11,UACCCAGAGCAUGCAGUGUGAA,1.78 ± 0.12
12,UACCCAUUGCAUAUCGGAGUUG,1.78 ± 0.071
13,UACCCUGUAGAACCGAAUUUGUG,1.99 ± 0.17
14,UACCCUGUAGAUCCGAAUUUGUG,1.47 ± 0.25
15,UACGUAGAUAUAUAUGUAUUUU,1.5 ± 0.16
16,UACGUCAUCGUUGUCAUCGUCA,1.21 ± 0.51
17,UACUCAAAAAGCUGUCAGUCA,1.02 ± 0.51
18,UACUCAGGAGAGUGGCAAUCAC,1.1 ± 0.15
19,UACUCCAGAGGGCGUCACUCAUG,1.02 ± 0.78
20,UACUGCAGACAGUGGCAAUCA,1.21 ± 0.45
21,UACUGCAGACGUGGCAAUCAUG,1 ± 0.63
22,UACUGCAUCAGGAACUGAUUGGA,0.878 ± 0.64
23,UACUUGGAAAGGCAUCAGUUG,1.28 ± 0.25
24,UAGAGUUACACCCUGGGAGUUA,1.66 ± 0.19

row,Sequence,HRG-induced Akt activation (log2)
1,UAGAUAAAAUAUUGGUACCUG,1.34 ± 0.55
2,UAGCAAAAACUGCAGUUACUUU,1.86 ± 0.15
3,UAGCACCAUCUGAAAUCGGUUA,1.24 ± 0.077
4,UAGCACCAUUUGAAAUCAGUGUU,1.47 ± 0.15
5,UAGCACCAUUUGAAAUCGGUUA,1.17 ± 0.57
6,UAGCAGCACAGAAAUAUUGGC,1.42 ± 0.76
7,UAGCAGCACAUAAUGGUUUGUG,1.98 ± 0.18
8,UAGCAGCACAUCAUGGUUUACA,1.59 ± 0.025
9,UAGCAGCACGUAAAUAUUGGCG,2.03 ± 0.15
10,UAGCAGCGGGAACAGUUCUGCAG,1.61 ± 0.1
11,UAGCUUAUCAGACUGAUGUUGA,1.73 ± 0.11
12,UAGGACACAUGGUCUACUUCU,1.04 ± 0.19
13,UAGGCAGUGUCAUUAGCUGAUUG,1.69 ± 0.15
14,UAGGUAGUUUCAUGUUGUUGGG,1.86 ± 0.1
15,UAGGUAGUUUCCUGUUGUUGGG,2.19 ± 0.23
16,UAGGUUAUCCGUGUUGCCUUCG,1.17 ± 0.16
17,UAGUACCAGUACCUUGUGUUCA,1.19 ± 0.3
18,UAGUACUGUGCAUAUCAUCUAU,1.44 ± 0.47
19,UAGUAGACCGUAUAGCGUACG,1.5 ± 0.21
20,UAGUGCAAUAUUGCUUAUAGGGU,0.808 ± 0.069
21,UAUACAAGGGCAAGCUCUCUGU,1.05 ± 0.18
22,UAUACAAGGGCAGACUCUCUCU,1.48 ± 0.24
23,UAUACCUCAGUUUUAUCAGGUG,1.94 ± 0.15
24,UAUAGGGAUUGGAGCCGUGGCG,1.04 ± 0.064

row,Sequence,HRG-induced Akt activation (log2)
1,UAUGCAUUGUAUUUUUAGGUCC,1.1 ± 0.81
2,UAUGGCACUGGUAGAAUUCACU,1.65 ± 0.3
3,UAUGGCUUUUCAUUCCUAUGUGA,1.12 ± 0.29
4,UAUGGCUUUUUAUUCCUAUGUGA,1.27 ± 0.27
5,UAUGUAACACGGUCCACUAACC,1.73 ± 0.081
6,UAUGUAACAUGGUCCACUAACU,1.97 ± 0.17
7,UAUGUAAUAUGGUCCACAUCUU,2.01 ± 0.2
8,UAUGUCUGCUGACCAUCACCUU,2.316 ± 0.0055
9,UAUGUGCCUUUGGACUACAUCG,1.56 ± 0.13
10,UAUGUGGGAUGGUAAACCGCUU,2.19 ± 0.34
11,UAUUCAUUUAUCCCCAGCCUACA,1.59 ± 0.22
12,UAUUGCACAUUACUAAGUUGCA,1.07 ± 0.077
13,UAUUGCACUCGUCCCGGCCUCC,1.33 ± 0.043
14,UAUUGCACUUGUCCCGGCCUGU,1.3 ± 0.12
15,UCAAAACUGAGGGGCAUUUUCU,1.34 ± 0.13
16,UCAAAUGCUCAGACUCCUGUGGU,1.63 ± 0.19
17,UCAAGAGCAAUAACGAAAAAUGU,1.91 ± 0.14
18,UCACAAGUCAGGCUCUUGGGAC,1.27 ± 0.15
19,UCACAAUGCUGACACUCAAACUGCUGAC,1.45 ± 0.48
20,UCACACCUGCCUCGCCCCCC,1.05 ± 0.31
21,UCACAGUGAACCGGUCUCUUU,1.04 ± 0.063
